Some results are limits rather than exact numbers.

Sequence of ATP-dependent translocase ABCB1 (P08183 whole entry): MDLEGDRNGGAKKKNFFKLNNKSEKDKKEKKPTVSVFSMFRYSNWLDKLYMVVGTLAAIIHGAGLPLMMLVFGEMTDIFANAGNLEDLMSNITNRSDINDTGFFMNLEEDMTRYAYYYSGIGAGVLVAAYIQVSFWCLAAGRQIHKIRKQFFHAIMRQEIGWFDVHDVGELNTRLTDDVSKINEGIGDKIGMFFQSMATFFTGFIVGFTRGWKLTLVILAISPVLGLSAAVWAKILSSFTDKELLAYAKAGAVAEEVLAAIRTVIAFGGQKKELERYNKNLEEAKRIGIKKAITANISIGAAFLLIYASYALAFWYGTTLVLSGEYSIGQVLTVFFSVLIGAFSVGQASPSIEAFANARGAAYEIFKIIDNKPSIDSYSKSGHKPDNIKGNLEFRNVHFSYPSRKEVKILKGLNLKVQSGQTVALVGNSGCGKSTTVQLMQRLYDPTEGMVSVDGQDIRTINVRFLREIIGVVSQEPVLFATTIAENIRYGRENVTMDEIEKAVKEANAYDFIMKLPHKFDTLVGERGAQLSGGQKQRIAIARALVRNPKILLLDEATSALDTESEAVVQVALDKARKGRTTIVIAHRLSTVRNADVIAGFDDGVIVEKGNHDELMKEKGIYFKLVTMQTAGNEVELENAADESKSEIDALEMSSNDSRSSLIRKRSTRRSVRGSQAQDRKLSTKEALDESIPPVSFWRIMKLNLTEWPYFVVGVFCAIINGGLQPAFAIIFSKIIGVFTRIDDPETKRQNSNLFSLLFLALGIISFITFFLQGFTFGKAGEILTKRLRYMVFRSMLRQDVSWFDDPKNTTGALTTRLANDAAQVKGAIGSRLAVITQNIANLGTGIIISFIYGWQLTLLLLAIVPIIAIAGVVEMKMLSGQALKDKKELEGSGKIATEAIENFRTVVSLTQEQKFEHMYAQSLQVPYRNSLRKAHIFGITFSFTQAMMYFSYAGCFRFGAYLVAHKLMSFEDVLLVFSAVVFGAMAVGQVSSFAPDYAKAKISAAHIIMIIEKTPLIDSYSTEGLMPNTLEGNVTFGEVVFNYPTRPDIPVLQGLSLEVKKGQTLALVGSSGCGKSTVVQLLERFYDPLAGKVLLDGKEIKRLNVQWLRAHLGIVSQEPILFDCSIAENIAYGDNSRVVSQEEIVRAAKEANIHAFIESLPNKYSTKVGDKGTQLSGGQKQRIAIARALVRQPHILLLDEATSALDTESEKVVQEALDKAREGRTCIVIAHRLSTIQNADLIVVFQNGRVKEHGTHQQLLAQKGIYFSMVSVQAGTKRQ

The assay concerns the target ATP-dependent translocase ABCB1 (Homo sapiens, UniProt P08183). In words: Inhibition of P-glycoprotein expressed in MDR CCRF vcr1000 cells by daunorubicin efflux assay.
`COC(CCc1ccccc1)c1ccccc1OCC(O)CN1CCN(c2ccc(F)cc2)CC1` (configuration not stated) displayed an EC50 of 0.226 µM. As to `CC1c2ccccc2OC1CN1CCCCC1` (configuration not stated), the response was half-maximal at 48.9 µM (EC50). To `O=C(CCc1ccccc1)c1ccccc1OCCCCCCN1CCCCC1` belongs 0.203 µM; to `CCC(C)c1ccc(N2C(=O)c3ccccc3NC2c2ccc(C(C)C)cc2)cc1` (configuration not stated), 0.29 µM. `CC1c2ccccc2OC1C(=O)N1CCCCC1` (configuration not stated): the EC50 came to 104 µM.

`CCC(=O)c1ccccc1OCC(O)CN1CCOCC1` (configuration not stated) registered an EC50 of 67 µM. In the case of `O=C(O)COc1ccccc1C(=O)CCc1ccccc1`, the EC50 turned out to be 1590 µM. On to `CC(=O)c1cccc(OCC(O)CN2CCOCC2)c1` (configuration not stated), for which the EC50 was 128 µM. On to `O=C(CCc1ccccc1)c1cccc(OCC(O)CN2CCN(c3ccc(F)cc3)CC2)c1` (configuration not stated), for which a half-maximal response (EC50) required 1.12 µM. The compound `O=C(CCc1cccc2ccccc12)c1ccccc1OCC(O)CN1CCC(O)(c2ccccc2)CC1` (configuration not stated) gave an EC50 of 0.075 µM. The compound `CC(=O)c1ccccc1OCC(O)CN1CCN(c2ccc(F)cc2)CC1` (configuration not stated) yielded an EC50 of 2.09 µM.

With `CCCNC[C@H](O)c1oc2ccccc2c1CCc1ccccc1`, a half-maximal effect (EC50) was put at 1.06 µM. The same measure for `O=C1CCc2c(OCC(O)CN3CCCCC3)cccc21` (configuration not stated): 11.2 µM. Consider `Cc1ccccc1N1CCN(CC(O)COc2ccccc2C(=O)CCc2ccccc2)CC1` (configuration not stated), for which the EC50 was 0.027 µM. Turning to `CC(C)N(CC(O)COc1ccc(O)cc1C(=O)CCc1ccccc1)C(C)C` (configuration not stated), the EC50 worked out at 1.04 µM. To `CCOC(=O)COc1ccccc1C(=O)CCc1ccccc1` belongs 23.2 µM; to `O=C(CCc1ccccc1)c1ccccc1OCC(O)CNCC(c1ccccc1)c1ccccc1` (configuration not stated), 0.797 µM; to `CC(=O)c1c(C)cc(C)c(CSc2nc3ccc(NC(=O)CCc4ccccc4)cc3s2)c1C`, 0.3 µM. For the compound `O=C(CCc1ccccc1)c1ccccc1OCCCCN1CCCCC1`, the response was half-maximal at 0.533 µM (EC50).

As to `Cc1ccccc1N1CCN(CC(O)COc2cc(Cl)c(Cl)cc2C(=O)CCc2ccccc2)CC1` (configuration not stated), the midpoint of the response, the EC50, lay at 0.017 µM. `CC(=O)c1ccc(OCC(O)CNCCC(c2ccccc2)c2ccccc2)cc1` (configuration not stated) displayed an EC50 of 0.178 µM. The compound `COc1ccc(-n2c(C3=NNC(=O)CC3)n[nH]c2=S)cc1` registered an EC50 of more than 250 µM. In turn, `CCOc1ccc(N2C(=O)c3ccccc3NC2c2ccc(N(C)C)cc2)cc1` (configuration not stated) displayed an EC50 of 25.1 µM.

With `COc1ccc(N2CCN(CC(O)COc3ccccc3C(=O)CCc3ccccc3)CC2)cc1` (configuration not stated), the EC50 amounted to 0.256 µM. Compound `CC(=O)c1ccccc1OCC(O)CN1CCCCC1` (configuration not stated) gave an EC50 of 32 µM. For `CCC(=O)N(Cc1ccccc1)CC(O)COc1ccccc1C(=O)CCc1ccccc1` (configuration not stated), the EC50 was found to be 1.65 µM. On to `CCOC(=O)C(=NNc1c(Cl)cc(Cl)cc1Cl)C(=O)OCC`, for which the EC50 stood at 17.7 µM.

Regarding `O=C(CCc1ccccc1)c1ccccc1OCC(O)CN1CCC(Cc2ccccc2)CC1` (configuration not stated), a half-maximal effect (EC50) was put at 0.259 µM. On to `CCCN(CC(O)COc1ccccc1C(=O)CCc1ccccc1)C(=O)c1ccccc1` (configuration not stated), for which the EC50 turned out to be 1.69 µM. To `CC(C)N(CC(O)COc1ccccc1C(O)CCc1ccccc1)C(C)C` (configuration not stated) belongs 1.74 µM. The same measure for `Cc1ccc(-c2n[nH]c3c2C(c2ccc(N(C)C)cc2)C(C#N)=C(N)O3)cc1` (configuration not stated): 3.08 µM; for `COc1ccc(C(=O)CCc2ccc(N(C)C)cc2)c(OCC(O)CN2CCN(c3ccccc3C)CC2)c1` (configuration not stated): 0.04 µM; for `CC(=O)c1ccccc1OCC(O)CN1CCC(O)(c2ccccc2)CC1` (configuration not stated): 3.2 µM. As to `CCCNCC(O)c1oc2ccccc2c1CC` (configuration not stated), the EC50 was found to be 11.5 µM. As for `O=C(CCc1ccccc1)c1ccccc1OCC(O)CN1CCN(c2ccccc2)CC1` (configuration not stated), the response was half-maximal at 0.61 µM (EC50). To `Cc1ccccc1N1CCN(CC(O)COc2cccc(C(=O)CCc3ccccc3)c2)CC1` (configuration not stated) belongs 0.074 µM. `CC(=O)c1cccc(OCC(O)CN2CCCCC2)c1` (configuration not stated) came in with an EC50 of 9.07 µM.

The compound `O=C(CCc1ccccc1)c1cc(OCc2ccccc2)ccc1OCC(O)CN1CCN(Cc2ccccc2)CC1` (configuration not stated) showed an EC50 of 0.116 µM. Take `COc1ccccc1N1CCN(CC(O)c2oc3ccccc3c2CCc2ccccc2)CC1` (configuration not stated): it took 0.177 µM to reach a half-maximal effect (EC50). `CCCNCC(O)COc1ccc(OCc2ccccc2)cc1C(=O)CCc1ccccc1` (configuration not stated) showed an EC50 of 0.11 µM.

On to `CC(=O)c1ccc(OCC(O)CN2CCOCC2)cc1` (configuration not stated), for which a half-maximal response (EC50) required 302 µM. To `COc1ccc(OCC(O)CN2CCN(c3ccccc3C)CC2)c(C(=O)CCc2ccccc2)c1` (configuration not stated) belongs 0.179 µM; to `CCC(C)c1ccc(C2Nc3ccccc3C(=O)N2c2ccc(Cl)cc2)cc1` (configuration not stated), 0.82 µM; to `CCOc1ccccc1NC(=O)C1=C(C)NC(=S)NC1c1cccs1` (configuration not stated), 8.77 µM. Compound `O=C(CCc1ccccc1)c1ccccc1OCC(O)CNCCC(c1ccccc1)c1ccccc1` (configuration not stated) showed an EC50 of 0.717 µM.

`O=C(CCc1ccccc1)c1ccc(OCC(O)CN2CCCCC2)cc1` (configuration not stated) displayed an EC50 of 0.972 µM.

`COC(=O)c1ccc(NCC(O)COc2ccccc2C(=O)CCc2ccccc2)cc1` (configuration not stated) came in with an EC50 of 1.54 µM. As to `O=C(CCc1ccccc1)c1ccc(OCC(O)CN2CCN(c3ccc(F)cc3)CC2)cc1` (configuration not stated), a half-maximal effect (EC50) was put at 2.54 µM. Compound `COc1ccc(CCC(=O)c2ccccc2OCC(O)CN2CCN(c3ccccc3C)CC2)cc1` (configuration not stated) returned an EC50 of 0.014 µM. `CN(C)c1ccc(-c2nc(C(F)(F)F)nc(C(F)(F)F)n2)cc1`: the EC50 is more than 100 µM. `O=C(c1ccccc1)c1ccccc1OCC(O)CN1CCC(O)(c2ccccc2)CC1` (configuration not stated) returned an EC50 of 0.307 µM. `O=C(CCc1ccccc1)c1ccccc1OCC(O)CN1CCN(c2ccc(F)cc2)CC1` (configuration not stated) yielded an EC50 of 0.07 µM.

In general, EC50 refers to the concentration needed to bring the measured effect to its halfway point.

(Values after ChEMBL document CHEMBL1142990, “Self-organizing maps for identification of new inhibitors of P-glycoprotein” (J Med Chem, 2007).)
